We go through five molecules from patent US4985440A, “Hypolipidaemic imidazol-2-yl-derivatives of bicyclic compounds” (priority 1988, dated 1991).

Test [1] can be described thus: Serum lipid lowering in male rats on standard diet (Table 1, activity as % variation vs. controls). Particulars: rat, 50 mg/kg/os, 4 days by stomach tube, * p ≤ 0.05, ** p ≤ 0.01; for Triglycerides, activity as % variation vs. controls: serum triglycerides; for Tot. Chol., activity as % variation vs. controls: total serum cholesterol. The test is classed as in vivo, Iva:SDIV (SPF) male rats. On the procedure: The activity of compounds of this invention was evaluated on Groups of Iva:SDIV (SPF) male rats fed standard diet (Altromin^R).
The compounds were suspended in "Methocel" (methyl cellulose, a 0.5% pseudosolution in water) and administered by stomach tube for 4 days.
Groups of animals were treated with the suspending agent only (control groups).
The total serum cholesterol was determined with the method of Allain C. C. (Clin. Chem. 20, 470, 1974).
The serum triglycerides were determined with the method of Spayd R. N. (Clin. Chem. 24, 1343, 1978).
The total serum HDL cholesterol was determined according to Demacker P. N. M. [Clin. Chem., 23, 1238 (1977)].
W. - J. Amer. Stat. Ass., 50, 1096 (1955)].

Test [2] addresses T1, acyl CoA: cholesterol acyltransferase (ACAT-EC 2.3.1.26) (Oryctolagus cuniculus, UniProt A0A5F9CPP4).
T1 construct: microsomal preparations from atherosclerotic rabbit thoracic aorta (intimamedia); from tissue; host or cells: microsomes of atherosclerotic rabbit thoracic aorta (intima-media)
T1 sequence (A0A5F9CPP4 1-555): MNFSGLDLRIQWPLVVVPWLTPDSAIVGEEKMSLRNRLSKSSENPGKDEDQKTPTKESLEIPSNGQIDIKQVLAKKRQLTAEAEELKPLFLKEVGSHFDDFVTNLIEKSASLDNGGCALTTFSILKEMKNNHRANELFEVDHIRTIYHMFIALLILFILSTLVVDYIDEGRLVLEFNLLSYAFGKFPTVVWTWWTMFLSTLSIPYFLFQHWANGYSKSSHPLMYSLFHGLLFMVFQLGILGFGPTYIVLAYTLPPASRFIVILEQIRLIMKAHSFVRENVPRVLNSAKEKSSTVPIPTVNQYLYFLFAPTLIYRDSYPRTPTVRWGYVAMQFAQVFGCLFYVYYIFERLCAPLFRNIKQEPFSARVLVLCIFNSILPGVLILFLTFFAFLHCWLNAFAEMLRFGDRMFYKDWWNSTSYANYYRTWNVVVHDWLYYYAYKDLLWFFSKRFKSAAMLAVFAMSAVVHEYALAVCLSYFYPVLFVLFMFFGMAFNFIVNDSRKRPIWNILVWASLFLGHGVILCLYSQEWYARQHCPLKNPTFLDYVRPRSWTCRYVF
The test can be described thus: ACAT inhibition in microsomes from atherosclerotic rabbit thoracic aortas (Table 2). The class given is biochemical.

The next test concerns ACAT. Particulars: rabbit arterial microsomes; Hudson H., Day A., Atherosclerosis (1982) 45, 109; cited from earlier work.

`CCOC(=O)C(C)(C)CCCOc1ccc2c(c1)C=C(c1nccn1C)CC2` [FCE 25390, ethyl 5-[5,6-dihydro-7-(1-methyl-1H-imidazol-2-yl)naphthalen-2yl]oxy-2,2-dimethylpentanoate]: in test [1], the “HDL/LDL + VLDL Chol. ratio, activity as % variation vs. controls” value is on record as “+96%”; the “LDL + VLDL Chol., activity as % variation vs. controls” value is reported as -59%; the “Triglycerides, activity as % variation vs. controls” value was -58%; the “Tot. Chol., activity as % variation vs. controls” value is reported as -36%.

As for `CCOC(=O)C(C)(C)CCCOc1ccc2c(c1)C=C(c1nccn1C)C(C)O2` (stereo not drawn) [FCE 25086, ethyl 5-[2-methyl-3-(1-methyl-1H-imidazol-2-yl)-2H-1-benzopyran-6yl]oxy-2,2-dimethylpentanoate], in test [1], the “HDL/LDL + VLDL Chol. ratio, activity as % variation vs. controls” value is “+135%”; the “LDL + VLDL Chol., activity as % variation vs. controls” value is given as -55%; the “Triglycerides, activity as % variation vs. controls” value is -53%; the “Tot. Chol., activity as % variation vs. controls” value is -14%.

Consider `CCOC(=O)C(C)(C)Oc1ccc(Cl)cc1` [Clofibrate, reference compound], for which, in test [1], the “HDL/LDL + VLDL Chol. ratio, activity as % variation vs. controls” value is “+18%”; the “LDL + VLDL Chol., activity as % variation vs. controls” value was -19%; the “Triglycerides, activity as % variation vs. controls” value was -22%; the “Tot. Chol., activity as % variation vs. controls” value was -11%.

Regarding `CCCC1Oc2ccc(OCCCC(C)(C)C(=O)OCC)cc2C=C1c1nccn1C` (stereo not drawn) [FCE 25184, ethyl 5-[3-(1-methyl-1H-imidazol-2-yl)-2-n-propyl-2H-1-benzopyran-6-yl]oxy-2,2-dimethylpentanoate], the IC50 (in general, the midpoint of a concentration-inhibition curve) in test [2] (microsomes from atherosclerotic rabbit thoracic aortas (intimamedia), limits p = 0.95) was found to be 1060 nM. Moreover, the “potency in ACAT inhibition relative to Bezafibrate (times more potent)” value in test [2] (ratio of IC50 values, vs. Bezafibrate) is “about 500 times”.

For `CC(C)(Oc1ccc(CCNC(=O)c2ccc(Cl)cc2)cc1)C(=O)O` [Bezafibrate], the “inhibitory activity in vitro (in words)” value in the test on ACAT is “inhibitory activity in vitro (rabbit arterial microsomes) has been already demonstrated”.
